This assay relates to Mycobacterium tuberculosis. In words: Antibacterial activity against Mycobacterium tuberculosis NTB1 harboring cys287ser mutation in DprE1 assessed as reduction in colony formation. Type of assay: functional, organism-based.

The source made the active and inactive calls. The calls are words filed in the database; no cut-off is given here.

Turning to `C[C@H]1COC2(CCN(c3nc(=O)c4cc(C(F)(F)F)cc(N=[N+]=[N-])c4s3)CC2)O1`, the outcome was Active.

The values above are taken from ChEMBL document CHEMBL3804812, “Design, Syntheses, and Anti-TB Activity of 1,3-Benzothiazinone Azide and Click Chemistry Products Inspired by BTZ043” (ACS Med Chem Lett, 2016).
